Measurements taken from patent US11422132B2, “Peptides and uses thereof for diagnosing and treating myasthenia gravis” (The Regents of the University of California, priority 2016, dated 2022).
Entries after “also recorded” stand apart in the source; their conditions may differ. Where no end group is shown, it is not given here.

Tests used:
mAb 35 [1] = assay: Western blot of peptide-IChBD fusion proteins probed with mAb 35; format: binding, rat; settings: for mAb 35 binding, result in words: Western blot
Experimental: (§1) Chitin beads adsorbed with peptide-IChBD fusion proteins were run on an SDS-PAGE gel and transferred to a nitrocellulose membrane and assayed with the four mAbs.
(§2) Chitin beads adsorbed with peptide-IChBD fusion proteins were run on an SDS-PAGE gel and transferred to a nitrocellulose membrane and assayed with the five mAbs.
(§3) To explore the effects of individual amino acid substitutions between the Torpedo and the human AChR MIR mimics, eight peptides were prepared, each with an amino acid substituted from the human sequence into the Torpedo sequence. The single amino acid substitutions in the Torpedo MIR were: N10K (SEQ ID NO:11), L12F (SEQ ID NO:12), R66K (SEQ ID NO:13), A70D (SEQ ID NO:14), I75V (SEQ ID NO:15), R79H (SEQ ID NO:16), D111Q (SEQ ID NO:17), and K115H (SEQ ID NO:18).

mAb 198 [2] = assay: Western blot of peptide-IChBD fusion proteins probed with mAb 198; format: binding, rat; settings: for mAb 198 binding, result in words: Western blot; for mAb 198 binding compared to its binding to the human 39MIR: human 39MIR mutants, relative to human 39MIR
Excerpt: as §1, §2
The Torpedo (SEQ ID NO:9) and human (SEQ ID NO:8) 39MIRs were made by joining the α(1-12), α(65-79), and α(110-115) segments of their respective a subunits with GS linkers. These two MIR mimics were expressed in E. coli as fusion proteins with an IChBD tag to permit peptide collection on chitin beads. These two peptides differ from each other by eight amino acids (FIG. 2). Both mimics were probed with mAb 198. mAb 198, which was derived from rats that had been immunized with human muscle AChR, is a MIR-directed mAb that binds mammalian as well as Torpedo MIR (13,21). It was also able to passively transfer EAMG to rats and binds to both native assembled AChR and to α-subunit fragments in Western blots (22,23). mAb 198 binds to the Torpedo and human MIR peptide mimics in Western blots (FIG. 3). However, mAb 198 binds to the Torpedo mimic about 50 times more strongly than to the human MIR mimic (FIG. 3).
as §3

mAb 35 [3] = assay: Western blot of peptide-IChBD fusion proteins probed with mAb 35; format: binding, rat; design: key to mAb 35, fold-change in binding relative to Torpedo 39MIR: ‘—’ denotes no binding; settings: for mAb 35 binding compared to the Torpedo 39 MIR: human 39MIR triple and quadruple mutants, FIG. 7
[4] = system: antibodies in human MG serum samples; assay: Dot blot of His-tagged peptides against human MG serum samples; format: binding
Excerpt: Sample were obtained from either normal subjects (i.e., without a diagnosis of myasthenia gravis (MG)) or subjects diagnosed with MG. Samples were contacted with the Torpedo 39MIR peptide (SEQ ID NO:9), the human 39MIR peptide (SEQ ID NO:8), the K10N/V75I/[…] human 39MIR triple mutant (SEQ ID NO:26), or the K10N/D70A/V75I/Q111D human 39MIR quadruple mutant (SEQ ID NO:27).
His-tagged variants of the Torpedo 39MIR, human 39MIR, […] triple mutant, and K10N/D70A/V75I/Q111D quadruple mutant peptides were expressed and probed for binding to antibodies in human MG serum samples. The peptides were dot-blotted onto a membrane and probed for binding to antibodies in our human MG serum library. […] None of the His-tagged peptides bound any antibodies in normal human serum samples (FIG. 11). Although the triple mutant peptide (SEQ ID NO:26) bound better overall to mAb 35, mAb 132A, and mAb 198, the quadruple mutant peptide (SEQ ID NO:27) was better for binding antibodies in MG sera.

mAb 132A [5] = assay: Western blot of peptide-IChBD fusion proteins probed with mAb 132A; format: binding, rat; settings: for mAb 132A binding, result in words: Western blot
Experimental: as §1, §2, §3

mAb 132A [6] = assay: as above; format: binding, rat; design: key to mAb 132A, fold-change in binding relative to Torpedo 39MIR: ‘—’ denotes no binding; settings: for mAb 132A binding compared to the Torpedo 39 MIR: human 39MIR triple and quadruple mutants, FIG. 7
mAb 334 = assay: Western blot of peptide-IChBD fusion proteins probed with mAb 334; format: binding, rat; settings: Table 1, Western blot of FIG. 5, Torpedo 39MIR single mutants
Experimental: as §2, §3

mAb 132A [7] = settings: IChBD fusion; reference 14; read-out: Kd of complex with mAb 132A; cited from earlier work
[8] = system: MIR directed Abs in EAMG sera; settings: reference 14; cited from earlier work
mAb 198 [9] = assay: Western blot of peptide-Fc conjugates with mAb 198; format: binding, rat; settings: Western blot FIG. 13
Excerpt: (§4) A conjugate has been engineered (FIG. 12B) that fuses the chimeric Torpedo-human peptide (SEQ ID NO:27) to an antibody Fc domain.

mAb 132A [10] = assay: Western blot of peptide-Fc conjugates with mAb 132A; format: binding, rat; settings: Western blot FIG. 13
Excerpt: as §4

[11] = Table 2, Western blot of FIG. 7, human 39MIR multiple mutants
[12] = Table 3, single-substitution human 39MIR mutants
[13] = Table 1, Western blot of FIG. 5, Torpedo 39MIR single mutants

Row | Substance | mAb 35 binding, result in words (mAb 35 [1]) | mAb 198, fold-change in binding relative to Torpedo 39MIR (mAb 198 [2]; [11]) [fold-change] | mAb 198 binding, result in words (mAb 198 [2]) | mAb 35, fold-change in binding relative to Torpedo 39MIR (mAb 35 [3]; [11]) | binding to antibodies in human MG serum samples ([4]; FIG. 11) | mAb 132A binding, result in words (mAb 132A [5]) | mAb 132A, fold-change in binding relative to Torpedo 39MIR (mAb 132A [6]; [11]) | also measured
1 | SEHETRLVAKLFGGGSLKWNPDDYGGVKKIHGSLQYTGH (synthetic main immunogenic region (MIR) peptide) [Human 39MIR] | does not bind; also recorded: not recognized; also recorded: did not bind | 0.09 | binds; also recorded: recognized; also recorded: able to bind | — | did not bind any antibodies | does not bind; also recorded: not recognized; also recorded: did not bind | — | mAb 198, fold-change in binding relative to Torpedo 39MIR (mAb 198 [2]; [12]): 0.02 fold-change; mAb 35, fold-change in binding relative to Torpedo 39MIR (mAb 35 [3]; [12]): —; mAb 132A, fold-change in binding relative to Torpedo 39MIR (mAb 132A [6]; [12]): —
2 | SEHETRLVANLLGGGSLRWNPADYGGIKKIRGSLDYTGK [Torpedo 39MIR] |  | 1.00 | binds; also recorded: able to bind | 1.00 fold-change | did not bind any antibodies |  | 1.00 fold-change | mAb 35, fold-change in binding relative to Torpedo 39MIR (mAb 35 [1]; [13]): 1.00 fold-change; mAb 198, fold-change in binding relative to Torpedo 39MIR (mAb 198 [2]; [13]): 1.00 fold-change; mAb 198, fold-change in binding relative to Torpedo 39MIR (mAb 198 [2]; [12]): 1.00 fold-change; mAb 198 binding to the Torpedo mimic versus the human MIR mimic (mAb 198 [2]; Western blot FIG. 3, more strongly than to the human MIR mimic): about 50 times; mAb 334, fold-change in binding relative to Torpedo 39MIR (mAb 334): 1.00 fold-change; Kd (mAb 132A [7]): 0.21 nM; adsorption of MIR directed Abs in EAMG sera that block the binding of biotinylated mAb 132A to the Torpedo AChR [8]: able to adsorb all of the MIR directed Abs in EAMG sera; mAb 35, fold-change in binding relative to Torpedo 39MIR (mAb 35 [3]; [12]): 1.00 fold-change; mAb 132A, fold-change in binding relative to Torpedo 39MIR (mAb 132A [5]; [13]): 1.00 fold-change; mAb 132A, fold-change in binding relative to Torpedo 39MIR (mAb 132A [6]; [12]): 1.00 fold-change
3 | SEHETRLVANLFGGGSLKWNPADYGGIKKIHGSLDYTGH (synthetic main immunogenic region (MIR) peptide) [K10N/D70A/V75I/Q111D, Human 39MIR quadruple mutant (K10N/D70A/V75I/Q111D)] |  | 0.99 |  | 1.70 fold-change | bound antibodies in the human sera |  | 0.99 fold-change | mAb 198 binding compared to its binding to the human 39MIR (mAb 198 [2]): 11 ×; mAb 35 binding compared to the Torpedo 39 MIR (mAb 35 [3]): 1.70 ×; binding to antibodies in human MG serum samples ([4]; FIG. 11, listed as SEQ ID NO:27): a fraction of Abs in MG patient sera; binding to antibodies in human MG serum samples ([4]; FIG. 11, listed as quadruple mutant peptide): able to bind antibodies in all of our human MG serum samples; mAb 132A binding compared to the Torpedo 39 MIR (mAb 132A [6]): 0.99 ×
4 | SEHETRLVANLFGGGSLKWNPDDYGGVKKIHGSLDYTGH (synthetic main immunogenic region (MIR) peptide) [K10N/Q111D, Human 39MIR double mutant (K10N/Q111D)] | restored binding | 1.19 | restored binding | 2.31 fold-change |  | restored binding | 1.07 fold-change | 
5 | Torpedo peptide-Fc conjugate: Torpedo 39MIR peptide (SEQ ID NO:9) conjugated to a human IgG antibody Fc domain plus hinge (SEHETRLVANLLGGGSLRWNPADYGGIKKIRGSLDYTGK; also: conjugated to human IgG Fc with hinge) |  |  |  |  |  |  |  | binding of mAb 198 to peptide-Fc conjugate (mAb 198 [9]): did not bind; binding of mAb 132A to peptide-Fc conjugate (mAb 132A [10]): did not bind
6 | SEHETRLVANLFGGGSLKWNPDDYGGIKKIHGSLDYTGH (synthetic main immunogenic region (MIR) peptide) [K10N/V75I/Q111D, Human 39MIR triple mutant (K10N/V75I/Q111D)] | improved binding | 2.52 | improved binding | 2.97 fold-change | only bound antibodies in one MG serum sample |  | 2.46 fold-change | mAb 198 binding compared to its binding to the human 39MIR (mAb 198 [2]): 28 ×; mAb 198 binding compared to the Torpedo 39 MIR (mAb 198 [2]; human 39MIR triple mutant, FIG. 7): 2.52 ×; mAb 35 binding compared to the Torpedo 39 MIR (mAb 35 [3]): 2.97 ×; binding to antibodies in human MG serum samples ([4]; FIG. 11, listed as K10N/N75I/Q111D): bound antibodies in the human sera; mAb 132A binding compared to the Torpedo 39 MIR (mAb 132A [6]): 2.46 ×
7 | SEHETRLVANLFGGGSLKWNPADYGGVKKIHGSLQYTGH (synthetic main immunogenic region (MIR) peptide) [K10N/D70A, Human 39MIR double mutant (K10N/D70A)] | restored binding | 0.72 | restored binding | 0.31 fold-change |  | restored binding | 0.16 fold-change | 
8 | SEHETRLVANLFGGGSLKWNPDDYGGIKKIHGSLQYTGH (synthetic main immunogenic region (MIR) peptide) [K10N/V75I, Human 39MIR double mutant (K10N/V75I)] | restored binding | 1.79 | restored binding | 1.10 fold-change |  | restored binding | 1.25 fold-change | 
